Assay results from ChEMBL document CHEMBL2311273, “Discovery of potent, selective multidrug and toxin extrusion transporter 1 (MATE1, SLC47A1) inhibitors through prescription drug profiling and computational modeling” (J Med Chem, 2013).

Assays:
Type in all cases: cell-based
[1] = target: T1, Multidrug and toxin extrusion protein 1 (Homo sapiens, UniProt Q96FL8); assay: Inhibition of human MATE1-mediated ASP+ uptake expressed in HEK293 cells after 1.5 mins by fluorescence assay
T1 sequence (Q96FL8 whole entry): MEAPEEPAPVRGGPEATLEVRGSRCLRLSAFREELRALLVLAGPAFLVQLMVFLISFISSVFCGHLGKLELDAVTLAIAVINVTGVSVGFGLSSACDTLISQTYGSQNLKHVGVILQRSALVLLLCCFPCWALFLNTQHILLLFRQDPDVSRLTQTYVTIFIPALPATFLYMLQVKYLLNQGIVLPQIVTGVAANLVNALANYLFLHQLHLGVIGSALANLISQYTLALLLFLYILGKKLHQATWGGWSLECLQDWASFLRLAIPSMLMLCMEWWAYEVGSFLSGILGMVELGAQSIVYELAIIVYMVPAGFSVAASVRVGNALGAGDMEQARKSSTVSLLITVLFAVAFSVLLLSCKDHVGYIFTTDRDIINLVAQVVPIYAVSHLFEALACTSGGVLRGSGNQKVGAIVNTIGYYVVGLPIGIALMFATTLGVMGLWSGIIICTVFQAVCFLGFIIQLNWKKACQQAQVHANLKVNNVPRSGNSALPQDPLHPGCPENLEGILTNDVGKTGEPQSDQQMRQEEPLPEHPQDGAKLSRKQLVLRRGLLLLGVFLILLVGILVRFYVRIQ

[2] = target: T2, MATE1 (multidrug and toxin extrusion protein 1) (Homo sapiens, UniProt Q96FL8); assay: (§1) Inhibition of human MATE1-mediated ASP+ uptake expressed in HEK293 cells at 20 uM after 1.5 mins by fluorescence assay; conditions: HEK293 cells expressing human MATE1, probe ASP+
T2 sequence (Q96FL8 whole entry): T1 sequence (Q96FL8 whole entry)

[3] = target: T3, Solute carrier family 22 member 2 (Homo sapiens, UniProt O15244); assay: Inhibition of human OCT2-mediated ASP+ uptake expressed in HEK293 cells after 3 mins by fluorescence assay
T3 sequence (O15244 whole entry): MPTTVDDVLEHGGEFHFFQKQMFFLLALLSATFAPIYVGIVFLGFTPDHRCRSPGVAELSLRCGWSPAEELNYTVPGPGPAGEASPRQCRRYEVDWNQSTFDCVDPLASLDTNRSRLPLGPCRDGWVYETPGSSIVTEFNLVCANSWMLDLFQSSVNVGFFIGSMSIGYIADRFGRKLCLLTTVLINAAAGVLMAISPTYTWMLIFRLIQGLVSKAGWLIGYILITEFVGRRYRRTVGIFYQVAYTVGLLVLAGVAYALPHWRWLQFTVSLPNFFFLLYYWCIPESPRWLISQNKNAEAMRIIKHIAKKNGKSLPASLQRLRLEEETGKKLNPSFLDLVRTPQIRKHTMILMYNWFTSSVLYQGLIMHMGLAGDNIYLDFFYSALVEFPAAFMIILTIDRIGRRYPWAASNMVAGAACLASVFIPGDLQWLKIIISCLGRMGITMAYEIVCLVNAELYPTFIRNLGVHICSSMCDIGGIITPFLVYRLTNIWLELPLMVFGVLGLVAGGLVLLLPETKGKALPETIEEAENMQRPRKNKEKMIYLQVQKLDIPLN

[4] = target: T4, Multidrug and toxin extrusion protein 2 (Homo sapiens, UniProt Q86VL8); assay: Inhibition of human MATE2K-mediated ASP+ uptake expressed in HEK293 cells after 1.5 mins by fluorescence assay
T4 sequence (Q86VL8 whole entry): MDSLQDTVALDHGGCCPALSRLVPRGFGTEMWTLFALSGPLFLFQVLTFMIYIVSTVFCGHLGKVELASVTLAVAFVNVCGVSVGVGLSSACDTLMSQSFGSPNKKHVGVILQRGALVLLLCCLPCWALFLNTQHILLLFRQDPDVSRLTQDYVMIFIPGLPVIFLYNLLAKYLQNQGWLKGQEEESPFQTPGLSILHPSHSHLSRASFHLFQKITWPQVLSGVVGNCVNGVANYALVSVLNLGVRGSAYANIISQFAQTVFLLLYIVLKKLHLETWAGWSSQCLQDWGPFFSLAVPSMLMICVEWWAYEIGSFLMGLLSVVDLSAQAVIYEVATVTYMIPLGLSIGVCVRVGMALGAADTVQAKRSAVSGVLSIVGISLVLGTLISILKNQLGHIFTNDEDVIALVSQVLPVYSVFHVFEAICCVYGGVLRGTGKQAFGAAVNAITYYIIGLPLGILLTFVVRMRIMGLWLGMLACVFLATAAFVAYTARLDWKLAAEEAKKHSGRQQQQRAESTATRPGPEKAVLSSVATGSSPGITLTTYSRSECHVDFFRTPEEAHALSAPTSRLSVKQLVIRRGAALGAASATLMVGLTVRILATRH

[5] = target: T1, Multidrug and toxin extrusion protein 1; assay: as §1; conditions: hek293, […], 20 µM

Row | Compound | IC50 [1] | inhibition at […], 20 µM [2] | IC50 [3] | IC50 [4] | INH [5]
1 | CCCc1nc2c(C)cc(-c3nc4ccccc4n3C)cc2n1Cc1ccc(-c2ccccc2C(=O)O)cc1 | 17.9 µM | 38% | – | – | –
2 | CNS(=O)(=O)Cc1ccc2[nH]cc(CCN(C)C)c2c1 | 6.7 µM | 7% | – | – | –
3 | CCOC(=O)[C@H](CCc1ccccc1)N[C@@H](C)C(=O)N1CCC[C@H]1C(=O)O | > 500 µM | 23% | – | – | –
4 | COc1ccc(CCN2CCC(Nc3nc4ccccc4n3Cc3ccc(F)cc3)CC2)cc1 [ASTEMIZOLE] | 26.4 µM | 34% | – | – | –
5 | Nc1ncn([C@@H]2O[C@H](CO)[C@@H](O)[C@H]2O)c(=O)n1 [AZACITIDINE] | – | 50% | – | – | –
6 | O=C1CC2(CCCC2)CC(=O)N1CCCCN1CCN(c2ncccn2)CC1 [BUSPIRONE] | – | – | 12 µM | 46 µM | –
7 | CN(C)C(=O)COC(=O)Cc1ccc(OC(=O)c2ccc(NC(=N)N)cc2)cc1 [CAMOSTAT] | – | – | 16.5 µM | 12.7 µM | 77%
8 | Cc1cc(C2CCCCC2)n(O)c(=O)c1 [CICLOPIROX] | > 500 µM | 52% | – | – | –
9 | Clc1cccc(Cl)c1N=C1NCCN1 [CLONIDINE] | 33.3 µM | 1% | – | – | –
10 | C[C@]12CCC(=O)C=C1CC[C@@H]1[C@@H]2C(=O)C[C@@]2(C)[C@H]1CC[C@]2(O)C(=O)CO [CORTISONE] | – | 10% | – | – | –
11 | [H]/N=C(/N)c1ccc(NCc2nc3cc(C(=O)N(CCC(=O)O)c4ccccn4)ccc3n2C)cc1 [DABIGATRAN] | 8.1 µM | – | 4.7 µM | 25.3 µM | –
12 | C[C@@H]1C[C@H]2[C@@H]3CCC4=CC(=O)C=C[C@]4(C)[C@@]3(F)[C@@H](O)C[C@]2(C)[C@@]1(O)C(=O)CO [DEXAMETHASONE] | > 500 µM | 30% | – | – | –
13 | CN1C[C@H](C(=O)N[C@]2(C)O[C@@]3(O)[C@@H]4CCCN4C(=O)[C@H](Cc4ccccc4)N3C2=O)C[C@@H]2c3cccc4[nH]cc(c34)C[C@H]21 [DIHYDROERGOTAMINE] | 2.8 µM | – | 49.9 µM | 12.6 µM | 72%
14 | O=c1[nH]c2ccccc2n1CCCN1CCC(n2c(=O)[nH]c3cc(Cl)ccc32)CC1 [DOMPERIDONE] | – | – | 7.9 µM | 14.8 µM | 66%
15 | NC1=NCC2c3ccccc3Cc3ccccc3N12 (stereo not given) [EPINASTINE] | 1.1 µM | – | 4.3 µM | 29.8 µM | 97%
16 | CC[C@H]1OC(=O)[C@H](C)[C@@H](O[C@H]2C[C@@](C)(OC)[C@@H](O)[C@H](C)O2)[C@H](C)[C@@H](O[C@@H]2O[C@H](C)C[C@H](N(C)C)[C@H]2O)[C@](C)(O)C[C@@H](C)C(=O)[C@H](C)[C@@H](O)[C@]1(C)O [ERYTHROMYCIN] | > 500 µM | – | – | – | –
17 | C#C[C@]1(O)CC[C@H]2[C@@H]3CCc4cc(O)ccc4[C@H]3CC[C@@]21C [ETHINYL ESTRADIOL] | 21.1 µM | – | 2.2 µM | 20.2 µM | 60%
18 | CCOC(=O)c1ccc(OC(=O)CCCCCNC(=N)N)cc1 [GABEXATE] | 0.5 µM | 96% | 0.9 µM | 10.8 µM | –

Row | Compound | IC50 [1] | inhibition at […], 20 µM [2] | IC50 [3] | IC50 [4] | INH [5]
19 | CN1C2CCCC1CC(NC(=O)c1nn(C)c3ccccc13)C2 (stereo not given) [GRANISETRON] | – | – | 4.3 µM | 311 µM | 67%
20 | COc1ccc2c(c1)c(CC(=O)O)c(C)n2C(=O)c1ccc(Cl)cc1 [INDOMETHACIN] | – | 6% | – | – | –
21 | CCCCC1=NC2(CCCC2)C(=O)N1Cc1ccc(-c2ccccc2-c2nnn[nH]2)cc1 [IRBESARTAN] | – | 15% | – | – | –
22 | CCCCc1nc(Cl)c(CO)n1Cc1ccc(-c2ccccc2-c2nn[nH]n2)cc1 [LOSARTAN] | – | 12% | – | – | –
23 | O=C(O)c1cccnc1 [NIACIN] | – | 54% | – | – | –
24 | CCOc1ccc(NC(C)=O)cc1 [PHENACETIN] | – | 53% | – | – | –
25 | O=c1[nH]c2ccccc2n1C1CCN(CCCC(c2ccc(F)cc2)c2ccc(F)cc2)CC1 [PIMOZIDE] | – | – | 34.2 µM | > 500 µM | –
26 | COc1cc2nc(N3CCN(C(=O)c4ccco4)CC3)nc(N)c2cc1OC [PRAZOSIN] | – | – | – | 38.4 µM | –
27 | C=C[C@H]1C[N@@]2CC[C@H]1C[C@@H]2[C@@H](O)c1ccnc2ccc(OC)cc12 [QUINIDINE] | – | 28% | – | – | –
28 | CNC(=C[N+](=O)[O-])NCCSCc1ccc(CN(C)C)o1 [RANITIDINE] | – | 29% | – | – | –
29 | CC(N)C12CC3CC(CC(C3)C1)C2 (stereo not given) [RIMANTADINE] | 7.3 µM | – | 4.4 µM | 288 µM | 74%
30 | CC(=O)S[C@@H]1CC2=CC(=O)CC[C@]2(C)[C@H]2CC[C@@]3(C)[C@@H](CC[C@@]34CCC(=O)O4)[C@H]12 [SPIRONOLACTONE] | 18.6 µM | 27% | – | – | –
31 | c1ccc2[nH]c(-c3cscn3)nc2c1 [THIABENDAZOLE] | > 500 µM | 55% | – | – | –
32 | CC[C@@]1(O)C(=O)OCc2c1cc1n(c2=O)Cc2cc3c(CN(C)C)c(O)ccc3nc2-1 [TOPOTECAN] | 1.3 µM | – | 61 µM | 8.6 µM | 50%
33 | COc1cc2c3cc1Oc1cc(ccc1O)C[C@@H]1c4c(cc(OC)c(O)c4Oc4ccc(cc4)C[C@@H]3N(C)CC2)CC[N+]1(C)C [TUBOCURARINE] | 9.4 µM | – | 78.8 µM | 55.5 µM | 95%
34 | CC(=O)O[C@H]1C[C@@H]2CC[C@@H]3[C@H](CC[C@@]4(C)[C@H]3C[C@H]([N+]3(C)CCCCC3)[C@@H]4OC(C)=O)[C@@]2(C)C[C@@H]1N1CCCCC1.[Br-] [VECURONIUM BROMIDE] | 1.9 µM | – | 3.5 µM | 25.2 µM | 85%
35 | COc1cc(C(=O)NS(=O)(=O)c2ccccc2C)ccc1Cc1cn(C)c2ccc(NC(=O)OC3CCCC3)cc12 [ZAFIRLUKAST] | – | – | 9.7 µM | 7.6 µM | 52%
